# US20230135029A1, “COMPOSITIONS AND METHODS FOR INCREASING DIGESTIBILITY OF CALCIUM AND PHOSPHOROUS IN PIGS” (Premex, Inc., priority 2020, published 2023)
# Entries after “also recorded” stand apart in the source; their conditions may differ.
# Tested on: late gestating sows
# Test: Calcium, phosphorus and energy balance / apparent total tract digestibility (ATTD) study in late gestating sows fed diets with supplemental 1-α-OH-D3
# Type: in vivo, pig
# Conditions: for ATTD of Ca / ATTD of Dry Matter / ATTD of P / ATTD of gross energy / Absorbed Ca / Absorbed P / Fecal Ca output / Fecal P output / Fecal excretion / Urine Ca output / Urine P output: 12.5 mg/kg diet; for fecal P output, in words / urine P output, in words: vs no supplement
# From the text: Thirty six gestating sows were allotted to three blocks of twelve sows using a randomized complete block design. Four diets were fed to the twelve sows in each block. Thus, there were a total of nine replicate sows per diet. Sows were fed experimental diets from day 91 to 105 of gestation and were housed individually in metabolism crates during this period. Metabolism crates were equipped with a feeder, a nipple drinker, and fully slatted T-bar floors. A screen floor and a urine pan were installed below the T-bar floors to allow for collection of feces and urine, respectively. The initial five days of each period in the metabolism crates were considered the adaptation period to the diets followed by four days of fecal collection using the marker to marker procedure (Adeola, O. 2001. Digestion and balance techniques in pigs. In: A. J. Lewis and L. L. Southern, editors, Swine Nutrition. CRC Press, Washington, D.C., USA. p. 903-916.). Fecal collection was initiated when the first marker (i.e., indigo carmine) appeared in the feces and ceased when the second marker (i.e., chromic oxide) appeared (Id.). Urine was collected in buckets placed under the urine pans with 50 mL of 3N HCl from day six in the morning until day ten in the morning. Buckets were emptied daily, the weight of the collected urine was recorded, and 10% of the collected urine was stored at −20° C. until subsampling.
# Diets were formulated using a 2×2 factorial arrangement with two levels of calcium and phosphorus (i.e., 100% and 75% of the requirement; NRC, 2012) with a constant calcium to phosphorus ratio (See Table 1) without or with supplemental 1-α-OH-D3 (Alpha D3, Premex Inc., NC). The high level of calcium and phosphorus was 100% requirement for late gestation sows. The low level of calcium phosphorus was 75% of requirement for late gestation sows (NRC. 2012. Nutrient requirements of swine. 11th rev. ed. Natl. Acad. Press, Washington, D.C., USA). The corn-1-α-OH-D3 premix provided 12.5 mg Alpha D3 per kg of complete diet; 1,000 g of 1-α-OH-D3 premix was prepared by mixing 417 mg Alpha D3 and 999.583 g ground corn.
# The vitamin-micromineral premix provided the following quantities of vitamins and micro minerals per kilogram of complete diet: vitamin A as retinyl acetate, 10,622 IU; vitamin D3 as cholecalciferol, 1,660 IU; vitamin E as […], 66 IU; vitamin K as menadione nicotinamide bisulfate, 1.40 mg; thiamin as thiamine mononitrate, 1.08 mg; riboflavin, 6.49 mg; pyridoxine as pyridoxine hydrochloride, 0.98 mg; vitamin B12, 0.03 mg; D-pantothenic acid as D-calcium pantothenate, 23.2 mg; niacin, 43.4 mg; folic acid, 1.56 mg; biotin, 0.44 mg; Cu, 20 mg as copper chloride; Fe, 123 mg as iron sulfate; I, 1.24 mg as ethylenediamine dihydriodide; Mn, 59.4 mg as manganese hydroxychloride; Se, 0.27 mg as sodium selenite and selenium yeast; and Zn, 124.7 mg as zinc hydroxychloride.
# All vitamins and minerals except calcium and phosphorus were included in all diets to meet or exceed nutrient requirements (NRC, 2012). Daily feed allotments were provided in a meal that was fed at 7 AM throughout the experiment. The daily feed allowance was 1.5 times the maintenance energy requirement for gestating sows based on the initial body weight of sows (i.e., 100 kcal ME/kg BW0.75; NRC. 2012. Nutrient requirements of swine. 11th rev. ed. Natl. Acad. Press, Washington, D.C., USA). Water was available at all times.
# At the conclusion of the testing, urine samples were thawed and mixed within animal and collection period and subsamples were collected. Fecal samples were stored at −20° C. as soon as collected, and at the conclusion of the experiment, samples were dried at 65° C. in a forced air oven and finely ground through a 1-mm screen before analysis using a Wiley mill (Model 4; Thomas Scientific, Swedesboro, N.J.). […]
# [1] = high level of dietary calcium and phosphorus, P<0.05
# [2] = low level of dietary calcium and phosphorus
# [3] = supplemented vs no supplemental 1-α-OH-D3, main effect, P<0.01
# [4] = supplemented vs no supplemental 1-α-OH-D3, regardless of dietary Ca and P levels, P<0.05
compound,measurement,setting,value
"C=C1/C(=C\C=C2/CCC[C@]3(C)[C@@H]([C@H](C)CCCC(C)C)CC[C@@H]23)C[C@@H](O)C[C@@H]1O [1-α-OH-D3, 1-alpha-hydroxycholecalciferol]",ATTD of Ca,High Ca and P levels,30.25%
same,ATTD of Dry Matter,High Ca and P levels,87.72%
same,ATTD of P,High Ca and P levels,34.7%
same,ATTD of gross energy,High Ca and P levels,87.3%
same,Absorbed Ca,High Ca and P levels,6.63 grams/day
same,Absorbed P,High Ca and P levels,5.19 grams/day
same,Fecal Ca output,High Ca and P levels,15.00 grams/day
same,Fecal P output,High Ca and P levels,9.71 grams/day
same,Fecal excretion,High Ca and P levels,0.32 kg dry matter/d
same,Urine Ca output,High Ca and P levels,0.59 grams/day
same,Urine P output,High Ca and P levels,0.99 grams/day
same,ATTD of Ca,Low Ca and P levels,30.49%
same,ATTD of Dry Matter,Low Ca and P levels,88.31%
same,ATTD of P,Low Ca and P levels,29.63%
same,ATTD of gross energy,Low Ca and P levels,87.5%
same,Absorbed Ca,Low Ca and P levels,4.66 grams/day
same,Absorbed P,Low Ca and P levels,3.16 grams/day
same,Fecal Ca output,Low Ca and P levels,10.89 grams/day
same,Fecal P output,Low Ca and P levels,7.67 grams/day
same,Fecal excretion,Low Ca and P levels,0.30 kg dry matter/d
same,Urine Ca output,Low Ca and P levels,0.99 grams/day
same,Urine P output,Low Ca and P levels,0.12 grams/day
same,"fecal P output, in words",[1],decreased
same,"urine P output, in words",[1],decreased
same,"fecal P output, in words",[2],no difference
same,"urine P output, in words",[2],no difference
same,"ATTD of dry matter, in words","supplemented vs no supplemental 1-α-OH-D3, main effect",greater
same,"fecal excretion, in words","supplemented vs no supplemental 1-α-OH-D3, main effect over both Ca and P levels, P<0.05",less
same,"ATTD of calcium, in words",[3],greater; also recorded: increased
same,"ATTD of gross energy, in words",[3],increases
same,"Fecal calcium output, in words",[3],less
same,"absorbed calcium, in words",[3],greater
same,"calcium retention, in words",[3],greater; also recorded: increased
same,"concentration of digestible energy in diets, in words",[3],increases
same,"urine calcium outputs, in words",[3],increased
same,"ATTD of phosphorus, in words",[4],greater; also recorded: increased
same,"absorbed phosphorus, in words",[4],greater
same,"phosphorus retention, in words",[4],greater; also recorded: increased
